Measurements published in US10160755B2 (Plexxikon Inc., priority 2015, dated 2018).

Molecular target: T1, FLT3-ITD (Homo sapiens, UniProt P36888)
T1 construct: FLT3-ITD; Invitrogen #PV6190
T1 sequence (P36888 1-993): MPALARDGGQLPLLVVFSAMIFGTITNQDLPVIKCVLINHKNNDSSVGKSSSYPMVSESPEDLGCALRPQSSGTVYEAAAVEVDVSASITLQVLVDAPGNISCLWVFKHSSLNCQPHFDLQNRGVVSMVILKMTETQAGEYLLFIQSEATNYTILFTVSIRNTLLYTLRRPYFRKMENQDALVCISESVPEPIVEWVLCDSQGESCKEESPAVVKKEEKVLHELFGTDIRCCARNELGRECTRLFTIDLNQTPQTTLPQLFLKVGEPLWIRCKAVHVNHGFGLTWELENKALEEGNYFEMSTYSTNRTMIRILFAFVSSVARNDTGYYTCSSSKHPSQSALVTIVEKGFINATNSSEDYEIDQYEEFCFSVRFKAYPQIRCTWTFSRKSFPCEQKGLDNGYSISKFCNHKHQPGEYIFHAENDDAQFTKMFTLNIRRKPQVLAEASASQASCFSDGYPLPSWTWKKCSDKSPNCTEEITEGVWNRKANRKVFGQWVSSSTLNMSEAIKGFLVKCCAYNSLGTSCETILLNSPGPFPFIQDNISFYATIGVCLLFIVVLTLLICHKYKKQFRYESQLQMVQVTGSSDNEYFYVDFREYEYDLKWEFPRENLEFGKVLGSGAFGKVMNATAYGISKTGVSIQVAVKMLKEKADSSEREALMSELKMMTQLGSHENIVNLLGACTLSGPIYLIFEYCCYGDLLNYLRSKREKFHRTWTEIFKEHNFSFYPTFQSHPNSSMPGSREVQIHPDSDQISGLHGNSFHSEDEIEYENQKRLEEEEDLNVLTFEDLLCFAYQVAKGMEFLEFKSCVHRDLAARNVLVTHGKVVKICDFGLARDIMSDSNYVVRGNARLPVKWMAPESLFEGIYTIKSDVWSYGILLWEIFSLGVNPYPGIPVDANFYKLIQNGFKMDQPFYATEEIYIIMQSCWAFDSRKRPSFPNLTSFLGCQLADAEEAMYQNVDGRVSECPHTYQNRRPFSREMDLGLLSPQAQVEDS
Experiment: FLT3-ITD biochemical kinase assay (AlphaScreen)
Method in brief: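 First, recombinant FLT3 variant phosphorylates a biotinylated poly(Glu4-Tyr) peptide (30 nM) with ATP at 10 μM (D835Y) or 100 μM (ITD). Streptavidin donor beads are then added for 20 min at room temperature, followed by anti-phosphotyrosine PY20 acceptor beads for 60 min. Signal at 580 nm gives IC50.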

| IC50 [µM] | Structure (SMILES) |
| --- | --- |
| 0.0001 to 1 | Cc1ncc(C#Cc2cnc3[nH]cc(-c4ccc5ncn(C(C)(C)C)c5c4)c3n2)cn1 [P-284, 7-(3-tert-butylbenzimidazol-5-yl)-2-[2-(2-methylpyrimidin-5-yl)ethynyl]-5H-pyrrolo[2,3-b]pyrazine] |
| 0.0001 to 1 | CC(C)(C)n1cnc2ccc(-c3c[nH]c4ncc(-c5ccc(C#N)nc5)cc34)cc21 [P-290, 5-[3-(3-tert-butylbenzimidazol-5-yl)-1H-pyrrolo[2,3-b]pyridin-5-yl]pyridine-2-carbonitrile] |
| 0.0001 to 1 | CC(C)(C)n1cnc2ccc(-c3c[nH]c4ncc(-c5cnc(N6CCC(F)(F)CC6)nc5)nc34)cc21 [P-357, 7-(3-tert-butylbenzimidazol-5-yl)-2-[2-(4,4-difluoro-1-piperidyl)pyrimidin-5-yl]-5H-pyrrolo[2,3-b]pyrazine] |
| 0.0001 to 1 | COc1cc(-c2cnc3[nH]cc(-c4ccc5ncn(C6(C(F)(F)F)CC6)c5c4)c3n2)ccn1 [P-312, 2-(2-methoxy-4-pyridyl)-7-[3-[1-(trifluoromethyl)cyclopropyl]benzimidazol-5-yl]-5H-pyrrolo[2,3-b]pyrazine] |
| 0.0001 to 1 | CC(C)(C)n1cnc2ccc(-c3c[nH]c4ncc(-c5cccc(N6CCCS6(=O)=O)c5)cc34)cc21 [P-278, 2-[3-[3-(3-tert-butylbenzimidazol-5-yl)-1H-pyrrolo[2,3-b]pyridin-5-yl]phenyl]-1,2-thiazolidine 1,1-dioxide] |
| 0.0001 to 1 | O=S1(=O)CCCCN1c1cc(-c2cnc3[nH]cc(-c4ccc5ncn(C6CCCNC6)c5c4)c3n2)ccn1 (stereo not drawn) [P-310, 2-[4-[7-[3-(3-piperidyl)benzimidazol-5-yl]-5H-pyrrolo[2,3-b]pyrazin-2-yl]-2-pyridyl]thiazinane 1,1-dioxide] |
| 0.0001 to 1 | CCN1CCN(c2ccc(-c3cnc4[nH]cc(-c5ccc6ncn(C(C)(C)C)c6c5)c4n3)cn2)CC1 [P-365, 7-(3-tert-butylbenzimidazol-5-yl)-2-[6-(4-ethylpiperazin-1-yl)-3-pyridyl]-5H-pyrrolo[2,3-b]pyrazine] |
| 0.0001 to 1 | CC(C)(C)n1cnc2ccc(-c3c[nH]c4ncc(-c5ccc(N6CCOCC6)nc5)nc34)cc21 [P-326, 4-[5-[7-(3-tert-butylbenzimidazol-5-yl)-5H-pyrrolo[2,3-b]pyrazin-2-yl]-2-pyridyl]morpholine] |
| 0.0001 to 1 | c1cc(-c2cnc3[nH]cc(-c4ccc5ncn(C6CCCNC6)c5c4)c3n2)cc(N2CCCCC2)c1 (stereo not drawn) [P-337, 7-[3-(3-piperidyl)benzimidazol-5-yl]-2-[3-(1-piperidyl)phenyl]-5H-pyrrolo[2,3-b]pyrazine] |
| 0.0001 to 1 | c1cc(-c2cnc3[nH]cc(-c4ccc5ncn(C6CCCNC6)c5c4)c3c2)cc(N2CCOCC2)c1 (stereo not drawn) [P-317, 4-[3-[3-[3-(3-piperidyl)benzimidazol-5-yl]-1H-pyrrolo[2,3-b]pyridin-5-yl]phenyl]morpholine] |
| 0.0001 to 1 | CC(C)(C)n1cnc2ccc(-c3c[nH]c4ncc(-c5ccnc(N6CCCS6(=O)=O)c5)nc34)cc21 [P-294, 2-[4-[7-(3-tert-butylbenzimidazol-5-yl)-5H-pyrrolo[2,3-b]pyrazin-2-yl]-2-pyridyl]-1,2-thiazolidine 1,1-dioxide] |
| 0.0001 to 1 | CC(C)(C)n1cnc2ccc(-c3c[nH]c4ncc(-c5ccc(N6CCCS6(=O)=O)cc5)cc34)cc21 [P-320, 2-[4-[3-(3-tert-butylbenzimidazol-5-yl)-1H-pyrrolo[2,3-b]pyridin-5-yl]phenyl]-1,2-thiazolidine 1,1-dioxide] |

Continued, molecule first:

| Structure (SMILES) | IC50 [µM] |
| --- | --- |
| CC(C)(C)n1cnc2ccc(-c3c[nH]c4ncc(-c5cccc(N6CCOCC6)c5)cc34)cc21 [P-316, 4-[3-[3-(3-tert-butylbenzimidazol-5-yl)-1H-pyrrolo[2,3-b]pyridin-5-yl]phenyl]morpholine] | 0.0001 to 1 |
| c1cc(-c2cnc3[nH]cc(-c4ccc5ncn(C6CCCNC6)c5c4)c3n2)cc(N2CCCCC2)n1 (stereo not drawn) [P-339, 7-[3-(3-piperidyl)benzimidazol-5-yl]-2-[2-(1-piperidyl)-4-pyridyl]-5H-pyrrolo[2,3-b]pyrazine] | 0.0001 to 1 |
| c1cc(N2CCCCC2)ccc1-c1cnc2[nH]cc(-c3ccc4ncn(C5CCCNC5)c4c3)c2n1 (stereo not drawn) [P-346, 7-[3-(3-piperidyl)benzimidazol-5-yl]-2-[4-(1-piperidyl)phenyl]-5H-pyrrolo[2,3-b]pyrazine] | 0.0001 to 1 |
| FC(F)(F)Cn1cc(-c2cnc3[nH]cc(-c4ccc5ncn(C6CCCNC6)c5c4)c3c2)cn1 (stereo not drawn) [P-275, 1-(3-piperidyl)-6-[5-[1-(2,2,2-trifluoroethyl)pyrazol-4-yl]-1H-pyrrolo[2,3-b]pyridin-3-yl]benzimidazole] | 0.0001 to 1 |
| CCN1CCN(c2ccc(-c3cnc4[nH]cc(-c5ccc6ncn(C7CCCNC7)c6c5)c4n3)cc2)CC1 (stereo not drawn) [P-359, 2-[4-(4-ethylpiperazin-1-yl)phenyl]-7-[3-(3-piperidyl)benzimidazol-5-yl]-5H-pyrrolo[2,3-b]pyrazine] | 0.0001 to 1 |
| CN1CCN(c2cccc(-c3cnc4[nH]cc(-c5ccc6ncn(C(C)(C)C)c6c5)c4n3)c2)CC1 [P-331, 7-(3-tert-butylbenzimidazol-5-yl)-2-[3-(4-methylpiperazin-1-yl)phenyl]-5H-pyrrolo[2,3-b]pyrazine] | 0.0001 to 1 |
| FC(F)n1cc(-c2cnc3[nH]cc(-c4ccc5ncn(C6CCCNC6)c5c4)c3c2)cn1 (stereo not drawn) [P-274, 5-[1-(difluoromethyl)pyrazol-4-yl]-3-[3-(3-piperidyl)benzimidazol-5-yl]-1H-pyrrolo[2,3-b]pyridine] | 0.0001 to 1 |
| CCN1CCN(c2ccc(-c3cnc4[nH]cc(-c5ccc6ncn(C7CCCNC7)c6c5)c4n3)cn2)CC1 (stereo not drawn) [P-366, 2-[6-(4-ethylpiperazin-1-yl)-3-pyridyl]-7-[3-(3-piperidyl)benzimidazol-5-yl]-5H-pyrrolo[2,3-b]pyrazine] | 0.0001 to 1 |
| CC(C)(C)n1cnc2ccc(-c3c[nH]c4ncc(-c5ccc(N6CCCCC6)nc5)nc34)cc21 [P-347, 7-(1-(tert-butyl)-1H-benzo[d]imidazol-6-yl)-2-(6-(piperidin-1-yl)pyridin-3-yl)-5H-pyrrolo[2,3-b]pyrazine] | 0.0001 to 1 |
| COc1cc(-c2cnc3[nH]cc(-c4ccc5ncn(C(C)(C)C)c5c4)c3c2)c(OC)nn1 [P-292, 1-tert-butyl-6-[5-(3,6-dimethoxypyridazin-4-yl)-1H-pyrrolo[2,3-b]pyridin-3-yl]benzimidazole] | 0.0001 to 1 |
| c1cc(N2CCCCC2)ncc1-c1cnc2[nH]cc(-c3ccc4ncn(C5CCCNC5)c4c3)c2n1 (stereo not drawn) [P-348, 7-[3-(3-piperidyl)benzimidazol-5-yl]-2-[6-(1-piperidyl)-3-pyridyl]-5H-pyrrolo[2,3-b]pyrazine] | 0.0001 to 1 |
| O=S1(=O)CCCN1c1cc(-c2cnc3[nH]cc(-c4ccc5ncn(C6CCCNC6)c5c4)c3n2)ccn1 (stereo not drawn) [P-295, 2-[4-[7-[3-(3-piperidyl)benzimidazol-5-yl]-5H-pyrrolo[2,3-b]pyrazin-2-yl]-2-pyridyl]-1,2-thiazolidine 1,1-dioxide] | 0.0001 to 1 |
| CC(C)(C)n1cnc2ccc(-c3c[nH]c4ncc(-c5ccnc(N6CCCCS6(=O)=O)c5)nc34)cc21 [P-309, 2-[4-[7-(3-tert-butylbenzimidazol-5-yl)-5H-pyrrolo[2,3-b]pyrazin-2-yl]-2-pyridyl]thiazinane 1,1-dioxide] | 0.0001 to 1 |
| CC(C)(C)n1cnc2ccc(-c3n[nH]c4ncc(-c5cccc(N6CCCS6(=O)=O)c5)cc34)cc21 [P-296, 2-[3-[3-(3-tert-butylbenzimidazol-5-yl)-1H-pyrazolo[3,4-b]pyridin-5-yl]phenyl]-1,2-thiazolidine 1,1-dioxide] | 0.0001 to 1 |
| CCN1CCN(c2cc(-c3cnc4[nH]cc(-c5ccc6ncn(C7CCCNC7)c6c5)c4n3)ccn2)CC1 (stereo not drawn) [P-327, 2-[2-(4-ethylpiperazin-1-yl)-4-pyridyl]-7-[3-(3-piperidyl)benzimidazol-5-yl]-5H-pyrrolo[2,3-b]pyrazine] | 0.0001 to 1 |
| COc1cc(-c2cnc3[nH]cc(-c4ccc5ncn(C6CCCN(S(C)(=O)=O)C6)c5c4)c3n2)ccn1 (stereo not drawn) [P-281, 2-(2-methoxy-4-pyridyl)-7-[3-(1-methylsulfonyl-3-piperidyl)benzimidazol-5-yl]-5H-pyrrolo[2,3-b]pyrazine] | 0.0001 to 1 |

Molecular target: c-Kit (Homo sapiens, UniProt P10721)
Sequence (P10721 26-976): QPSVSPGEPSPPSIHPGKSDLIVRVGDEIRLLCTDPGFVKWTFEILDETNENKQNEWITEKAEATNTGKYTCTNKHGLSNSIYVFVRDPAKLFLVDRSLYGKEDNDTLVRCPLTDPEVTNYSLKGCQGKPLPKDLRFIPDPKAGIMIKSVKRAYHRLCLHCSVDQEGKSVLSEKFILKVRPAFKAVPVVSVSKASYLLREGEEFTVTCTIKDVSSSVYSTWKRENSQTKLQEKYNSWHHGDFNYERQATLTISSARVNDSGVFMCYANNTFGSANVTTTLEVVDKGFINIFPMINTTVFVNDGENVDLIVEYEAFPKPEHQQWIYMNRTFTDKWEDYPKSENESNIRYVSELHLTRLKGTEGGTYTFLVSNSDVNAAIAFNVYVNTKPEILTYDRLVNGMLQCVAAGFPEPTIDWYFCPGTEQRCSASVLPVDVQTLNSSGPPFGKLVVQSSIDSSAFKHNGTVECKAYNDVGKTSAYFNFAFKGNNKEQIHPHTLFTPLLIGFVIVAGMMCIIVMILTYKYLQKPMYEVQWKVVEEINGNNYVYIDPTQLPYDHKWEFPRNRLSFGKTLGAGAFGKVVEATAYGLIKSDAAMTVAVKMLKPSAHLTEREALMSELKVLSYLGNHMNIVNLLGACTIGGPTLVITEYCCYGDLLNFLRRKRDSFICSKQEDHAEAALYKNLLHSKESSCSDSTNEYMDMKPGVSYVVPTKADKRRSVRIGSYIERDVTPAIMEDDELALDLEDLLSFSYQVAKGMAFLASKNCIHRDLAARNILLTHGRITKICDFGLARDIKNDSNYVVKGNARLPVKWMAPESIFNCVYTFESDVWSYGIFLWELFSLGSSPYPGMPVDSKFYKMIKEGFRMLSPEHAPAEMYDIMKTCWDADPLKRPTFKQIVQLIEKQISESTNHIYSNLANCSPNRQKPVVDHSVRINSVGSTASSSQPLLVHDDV
Experiment: c-Kit biochemical assay (per US 2007/0032519)
Method in brief: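 Biochemical kinase inhibition run per US 2007/0032519; values reported as binned IC50 ranges (0.0001–1 μM, 1–10 μM, 10–200 μM).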

| Structure (SMILES) | IC50 [µM] |
| --- | --- |
| COc1cnc2[nH]cc(-c3ccc4ncn(-c5ccccc5)c4c3)c2c1 [P-068, 5-methoxy-3-(3-phenylbenzimidazol-5-yl)-1H-pyrrolo[2,3-b]pyridine] | 10 to 200 |
| COc1cnc2[nH]cc(-c3ccc4ncn(C(C)(C)C)c4c3)c2c1 [P-074, 1-tert-butyl-6-(5-methoxy-1H-pyrrolo[2,3-b]pyridin-3-yl)benzimidazole] | 1 to 10 |
